Measured values published in ChEMBL document CHEMBL4725353, “Discovery of Pyrido[2,3-b]indole Derivatives with Gram-Negative Activity Targeting Both DNA Gyrase and Topoisomerase IV” (J Med Chem, 2020).
Values after ≈ are worked out from the molar mass of the structure shown.

Key:
[1] = Distribution coefficient between octanol and buffer, log D of the compound in pH 7.4 buffer by CAMDIS assay; type: physicochemical
[2] = test system: Escherichia coli; assay: Antibacterial activity against Escherichia coli ATCC 35218 assessed as reduction in microbial growth preincubated for 20 to 24 hrs followed by subculture in absence of compound and measured on day 4 CLSI based broth microdilution susceptibility method; type: functional; conditions: time hrs 20-24
[3] = test system: Escherichia coli; assay: Antibacterial activity against Escherichia coli ATCC BAA-2340 assessed as reduction in microbial growth preincubated for 20 to 24 hrs followed by subculture in absence of compound and measured on day 4 CLSI based broth microdilution susceptibility method; type: functional; conditions: time hrs 20-24
[4] = test system: Klebsiella pneumoniae; assay: Antibacterial activity against Klebsiella pneumoniae ATCC 10031 assessed as reduction in microbial growth preincubated for 20 to 24 hrs followed by subculture in absence of compound and measured on day 4 CLSI based broth microdilution susceptibility method; type: functional; conditions: time hrs 20-24
[5] = test system: Klebsiella pneumoniae; assay: Antibacterial activity against Klebsiella pneumoniae ATCC 700603 assessed as reduction in microbial growth preincubated for 20 to 24 hrs followed by subculture in absence of compound and measured on day 4 CLSI based broth microdilution susceptibility method; type: functional; conditions: time hrs 20-24
[6] = test system: Klebsiella pneumoniae; assay: Antibacterial activity against Klebsiella pneumoniae ATCC BAA-2146 assessed as reduction in microbial growth preincubated for 20 to 24 hrs followed by subculture in absence of compound and measured on day 4 CLSI based broth microdilution susceptibility method; type: functional; conditions: time hrs 20-24
[7] = test system: Acinetobacter baumannii; assay: Antibacterial activity against Acinetobacter baumannii ATCC 19606 assessed as reduction in microbial growth preincubated for 20 to 24 hrs followed by subculture in absence of compound and measured on day 4 CLSI based broth microdilution susceptibility method; type: functional; conditions: time hrs 20-24
[8] = test system: Acinetobacter baumannii; assay: Antibacterial activity against Acinetobacter baumannii ATCC 51432 assessed as reduction in microbial growth preincubated for 20 to 24 hrs followed by subculture in absence of compound and measured on day 4 CLSI based broth microdilution susceptibility method; type: functional; conditions: time hrs 20-24
[9] = test system: Acinetobacter baumannii; assay: Antibacterial activity against Acinetobacter baumannii ATCC BAA-747 assessed as reduction in microbial growth preincubated for 20 to 24 hrs followed by subculture in absence of compound and measured on day 4 CLSI based broth microdilution susceptibility method; type: functional; conditions: time hrs 20-24
[10] = test system: Pseudomonas aeruginosa; assay: Antibacterial activity against Pseudomonas aeruginosa PAO1 assessed as reduction in microbial growth preincubated for 20 to 24 hrs followed by subculture in absence of compound and measured on day 4 CLSI based broth microdilution susceptibility method; type: functional; conditions: time hrs 20-24
[11] = test system: Pseudomonas aeruginosa; assay: Antibacterial activity against Pseudomonas aeruginosa ATCC 27853 assessed as reduction in microbial growth preincubated for 20 to 24 hrs followed by subculture in absence of compound and measured on day 4 CLSI based broth microdilution susceptibility method; type: functional; conditions: time hrs 20-24
[12] = test system: Pseudomonas aeruginosa; assay: Antibacterial activity against Pseudomonas aeruginosa ATCC BAA-2113 assessed as reduction in microbial growth preincubated for 20 to 24 hrs followed by subculture in absence of compound and measured on day 4 CLSI based broth microdilution susceptibility method; type: functional; conditions: time hrs 20-24
[13] = physchem
Description: Ionization constant (acid), pKa of the compound by photometric titration assay

[14] = test system: Escherichia coli; assay: microbe, parasite or virus in culture; conditions: ATCC 29213
Description: Antibacterial activity against Escherichia coli ATCC 29213 assessed as reduction in microbial growth preincubated for 20 to 24 hrs followed by subculture in absence of compound and measured on day 4 CLSI based broth microdilution susceptibility method

[15] = test system: Escherichia coli; assay: microbe, parasite or virus in culture; conditions: ATCC 25922
Description: Antibacterial activity against Escherichia coli ATCC 25922 assessed as reduction in microbial growth preincubated for 20 to 24 hrs followed by subculture in absence of compound and measured on day 4 CLSI based broth microdilution susceptibility method

[16] = Dissociation constant, pKa of compound by photometric titration assay; type: physicochemical
[17] = in vitro; conditions: mouse, liver microsomes
Description: Intrinsic clearance in mouse liver microsomes preincubated for 10 mins followed by NADPH regenerating system addition and measured up to 30 mins by LC/MS-MS analysis

[18] = physchem; conditions: PBS, pH 6.5
Description: Solubility of compound in PBS at pH 6.5 incubated for over night by HPLC-UV based lyophilization solubility assay

[19] = Protein binding in plasma (unknown origin) assessed as unbound fraction at 1 uM after 5 hrs by LC/MS-MS analysis; type: ADME, cell-free
[20] = Intrinsic clearance in mouse hepatocytes by LC/MS-MS analysis; type: ADME, cell-based, Hepatocyte
[21] = Cmax/dose in iv dosed CD-1 mouse measured up to 24 hrs by LC-MS/MS analysis; type: ADME, organism-based; conditions: in vivo
[22] = AUC/dose in iv dosed CD-1 mouse measured up to 24 hrs by LC-MS/MS analysis; type: ADME, organism-based; conditions: in vivo
[23] = Clearance in iv dosed CD-1 mouse measured up to 24 hrs by LC-MS/MS analysis; type: ADME, organism-based; conditions: in vivo
[24] = Half life in iv dosed CD-1 mouse measured up to 24 hrs by LC-MS/MS analysis; type: ADME, organism-based; conditions: in vivo
[25] = Volume of distribution at steady state in iv dosed CD-1 mouse measured up to 24 hrs by LC-MS/MS analysis; type: ADME, organism-based; conditions: in vivo, read-out: Vdss
[26] = Plasma protein binding in iv dosed CD-1 mouse measured up to 24 hrs by LC-MS/MS analysis; type: ADME, organism-based; conditions: read-out: PPB (converted)

Row | logD [1] | MIC [2] [µg/mL] | MIC [3] [µg/mL] | MIC [4] [µg/mL] | MIC [5] [µg/mL] | MIC [6] [µg/mL] | MIC [7] [µg/mL] | MIC [8] [µg/mL] | MIC [9] [µg/mL] | MIC [10] [µg/mL] | MIC [11] [µg/mL] | MIC [12] [µg/mL] | MIC [14] [µg/mL] | MIC [15] [µg/mL] | CLint scaled at 0.5 h [17] [mL/min/kg] | solubility [18] [µg/mL] | fraction unbound at 5 h, 1 µM [19] | SMILES | other results
1 | 3.44 | 2.85 | 2.85 | 0.178 | 1.42 | 5.7 | 1.42 | 5.7 | 2.85 | 2 | 2.85 | 1.42 | < 0.016 | 0.25 (≈ 0.549 µM) | – | – | – | CCNc1cc(F)cc2c1[nH]c1ncc(-c3cncc(N)c3)c(-n3ccc(C(F)(F)F)n3)c12 | pKa [13]: 4.84
2 | 3.25 | 0.76 | 0.76 | 0.09 | 0.76 | 3.02 | 0.76 | 3.02 | 3.02 | 2 | 0.76 | 0.76 | < 0.016 | 0.5 (≈ 1.03 µM) | – | – | – | CCNc1cc(F)cc2c1[nH]c1ncc(-c3cncc(C(N)=O)c3)c(-n3ccc(C(F)(F)F)n3)c12 | –
3 | 1.93 | – | – | – | – | – | – | – | – | – | – | – | 0.444 (≈ 0.85 µM) | > 11.4 | – | – | – | CCNc1cc(F)cc2c1[nH]c1ncc(-c3cncc(Cc4nnn[nH]4)c3)c(-n3ccc(C(F)(F)F)n3)c12 | pKa [16]: 4.78

The remaining lines, values behind:

Row | SMILES | logD [1] | MIC [2] [µg/mL] | MIC [3] [µg/mL] | MIC [4] [µg/mL] | MIC [5] [µg/mL] | MIC [6] [µg/mL] | MIC [7] [µg/mL] | MIC [8] [µg/mL] | MIC [9] [µg/mL] | MIC [10] [µg/mL] | MIC [11] [µg/mL] | MIC [12] [µg/mL] | MIC [14] [µg/mL] | MIC [15] [µg/mL] | CLint scaled at 0.5 h [17] [mL/min/kg] | solubility [18] [µg/mL] | fraction unbound at 5 h, 1 µM [19] | other results
4 | CCNc1cc(F)cc2c1[nH]c1ncc(-c3cncc(C#N)c3)c(-n3ccc(C(F)(F)F)n3)c12 | 3.63 | 1.45 | 2.91 | 0.73 | 1.45 | 5.82 | 0.73 | > 23.3 | 1.45 | 2 | 5.82 | 1.45 | < 0.016 | 0.5 (≈ 1.07 µM) | 61.8 | < 0.3 | – | –
5 | CCNc1cc(F)cc2c1[nH]c1ncc(-c3cnc(OC)nc3)c(-n3nc(C(F)(F)F)c4c3CNC4)c12 | – | – | – | – | – | – | – | – | – | – | – | – | – | 1 (≈ 1.95 µM) | 77.4 | 4 (≈ 7.81 µM) | 0.016 | –
6 | CCNc1cc(F)cc2c1[nH]c1ncc(-c3cncc(C#N)c3)c(-n3nc(C(F)(F)F)c4c3CNC4)c12 | – | – | – | – | – | – | – | – | – | – | – | – | – | 1 (≈ 1.97 µM) | 73.2 | < 0.3 | 0.012 | pKa [13]: 6.57
7 | CCNc1cc(F)cc2c1[nH]c1ncc(-c3cncc(C(=O)O)c3)c(-n3ccc(C(F)(F)F)n3)c12 | 1.9 | – | – | – | – | – | – | – | – | – | – | – | 1 (≈ 2.06 µM) | > 16 | – | – | – | pKa [16]: 3.57
8 | CCNc1cc(F)cc2c1[nH]c1ncc(-c3cnc(OC)nc3)c(-n3ncc4c3CNC4)c12 | – | 5.56 | 2.78 | 0.09 | 22.2 | 22.2 | 5.56 | 5.56 | 2.78 | 10 | 11.1 | 11.1 | – | 0.81 (≈ 1.82 µM) | 21.8 | 350 (≈ 787 µM) | 0.11 | CLH [20]: 53.9 µg/mL; Cmax/dose [21]: 792 kg·ng/mL/mg; AUC/dose [22]: 327 kg·ng·h/mL/mg; clearance [23]: 51 mL/min/kg; half-life [24]: 48 min; Vd [25]: 1.6 L/kg; fraction unbound at 24 h [26]: 0.11
